Assay results: patent US8735426B2, “Vanilloid receptor ligands, pharmaceutical compositions containing them, process for making them and use thereof for treating pain and other conditions” (Gruenenthal GmbH, priority 2007, dated 2014)

Key:
Type in all cases: cell-based
vanilloid receptor (VR1) [1] = biological target: T1, vanilloid receptor (VR1) (Homo sapiens, UniProt Q8NER1); assay: Functional FLIPR Ca2+ influx assay in CHO-K1 cells transfected with the VR1 gene, capsaicin stimulus (Pharmacological Method II)
T1 construct: expressed in transfected cells; host or cells: CHO-K1 cells (ECACC), stably transfected
T1 sequence (Q8NER1 whole entry): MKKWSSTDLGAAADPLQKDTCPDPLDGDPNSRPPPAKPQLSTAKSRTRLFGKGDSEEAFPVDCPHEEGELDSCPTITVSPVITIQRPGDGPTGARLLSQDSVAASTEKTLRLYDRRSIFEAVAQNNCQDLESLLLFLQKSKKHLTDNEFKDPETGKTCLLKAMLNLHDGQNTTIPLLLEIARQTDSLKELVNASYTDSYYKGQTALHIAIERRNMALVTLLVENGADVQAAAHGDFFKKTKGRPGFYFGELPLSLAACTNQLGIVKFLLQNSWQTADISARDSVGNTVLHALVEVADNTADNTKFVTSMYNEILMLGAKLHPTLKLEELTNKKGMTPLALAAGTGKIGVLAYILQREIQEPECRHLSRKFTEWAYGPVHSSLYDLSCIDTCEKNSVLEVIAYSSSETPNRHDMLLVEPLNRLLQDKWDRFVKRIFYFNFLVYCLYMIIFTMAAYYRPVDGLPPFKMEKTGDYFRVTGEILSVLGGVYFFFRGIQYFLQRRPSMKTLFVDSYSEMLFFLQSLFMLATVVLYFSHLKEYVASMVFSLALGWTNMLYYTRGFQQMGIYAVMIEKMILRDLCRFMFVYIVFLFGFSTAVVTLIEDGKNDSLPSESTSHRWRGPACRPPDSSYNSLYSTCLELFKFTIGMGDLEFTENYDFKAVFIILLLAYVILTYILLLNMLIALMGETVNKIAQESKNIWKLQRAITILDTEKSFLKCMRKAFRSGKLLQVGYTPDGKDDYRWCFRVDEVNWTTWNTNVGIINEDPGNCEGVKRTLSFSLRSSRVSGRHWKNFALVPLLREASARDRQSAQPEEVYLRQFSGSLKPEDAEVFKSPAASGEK
Description: The agonistic or antagonistic action of the substances to be examined on the vanilloid receptor (VR1) can alternatively be determined by the following assay. According to this assay the Ca^2+ influx through the canal is quantified with the aid of a Ca^2+-sensitive dye (type Fluo-4, Molecular Probes, Europe BV, Leiden, Netherlands) in a fluorescent imaging plate reader (FLIPR, Molecular Devices, Sunnyvale, USA).
Chinese hamster ovary cells (CHO-K1 cells, European Collection of Cell Cultures (ECACC) UK) are stably transfected with the VR1 gene. For carrying out functional investigations, these cells are plated on poly-D-lysine-coated, black 96-well plates with a clear bottom (BD Biosciences, Heidelberg, Germany) in a density of 25,000 cells/well. The cells are incubated overnight at 37° C. and 5% CO2 in a culture medium (Nutrient Mixture ‘am’s F12, 10% by volume of FCS (fetal calf serum), 18 μg/ml of L-proline). On the following day the cells are incubated with Fluo-4 (Fluo-4 2 μM, Pluronic F127 0.01 by volume, Molecular Probes in HBSS (Hank's buffered saline solution), Gibco Invitrogen GmbH, Karlsruhe, Germany) for 30 minutes at 37° C. The plates are then washed 3 times with HBSS buffer and, after another incubation over a period of 15 minutes at room temperature, are used in the FLIPR for Ca^2+ measurement. The Ca^2+-dependent fluorescence is measured prior to and following the addition of the substances being examined (wavelength λex=488 nm, λem=540 nm). Quantification is carried out by measuring the highest fluorescence intensity (PC, fluorescence counts) over time.
The FLIPR protocol consists of 2 substance additions. First of all, the substances to be tested (10 μM) are pipetted onto the cells and the Ca^2+ influx is compared with the control (capsaicin 10 μM) (percentage activation based on the Ca^2+ signal following addition of 10 μM of capsaicin). Following incubation over a period of 5 minutes 100 nM of capsaicin are applied and the influx of Ca^2+ is likewise determined.
Desensitizing agonists and antagonists led to a suppression of the Ca^2+ influx. The percentage inhibition compared with the maximum attainable inhibition using 10 μM of capsaicin is calculated.
Based on the percentage displacement effected by different concentrations of the compounds of the general formula I to be tested, IC50 inhibition concentrations are calculated which cause 50 percent displacement of capsaicin. Conversion using the Cheng Prusoff equation gave Ki values for the test substances (Cheng, Prusoff; Bioch. Pharmacol. 22, 3099-3108, 1973).

[2] = biological target: vanilloid receptor 1 (VR1/TRPV1-Receptor) (Homo sapiens, UniProt Q8NER1); assay: VR1 functional assay following pH-stimulus
Chain of vanilloid receptor 1 (VR1/TRPV1-Receptor) (Q8NER1 whole entry): as above

[3] = biological target: T2, vanilloid receptor 1 (VR1/TRPV1) (Rattus norvegicus, UniProt O35433); assay: Functional FLIPR Ca2+ influx assay on vanilloid receptor 1, capsaicin stimulus (Pharmacological Method I); conditions: for Ki: capsaicin stimulus
T2 construct: The vertebral column is removed from decapitated rats; from tissue; host or cells: primary cells from rat dorsal root ganglia (DRG)
T2 sequence (O35433 whole entry): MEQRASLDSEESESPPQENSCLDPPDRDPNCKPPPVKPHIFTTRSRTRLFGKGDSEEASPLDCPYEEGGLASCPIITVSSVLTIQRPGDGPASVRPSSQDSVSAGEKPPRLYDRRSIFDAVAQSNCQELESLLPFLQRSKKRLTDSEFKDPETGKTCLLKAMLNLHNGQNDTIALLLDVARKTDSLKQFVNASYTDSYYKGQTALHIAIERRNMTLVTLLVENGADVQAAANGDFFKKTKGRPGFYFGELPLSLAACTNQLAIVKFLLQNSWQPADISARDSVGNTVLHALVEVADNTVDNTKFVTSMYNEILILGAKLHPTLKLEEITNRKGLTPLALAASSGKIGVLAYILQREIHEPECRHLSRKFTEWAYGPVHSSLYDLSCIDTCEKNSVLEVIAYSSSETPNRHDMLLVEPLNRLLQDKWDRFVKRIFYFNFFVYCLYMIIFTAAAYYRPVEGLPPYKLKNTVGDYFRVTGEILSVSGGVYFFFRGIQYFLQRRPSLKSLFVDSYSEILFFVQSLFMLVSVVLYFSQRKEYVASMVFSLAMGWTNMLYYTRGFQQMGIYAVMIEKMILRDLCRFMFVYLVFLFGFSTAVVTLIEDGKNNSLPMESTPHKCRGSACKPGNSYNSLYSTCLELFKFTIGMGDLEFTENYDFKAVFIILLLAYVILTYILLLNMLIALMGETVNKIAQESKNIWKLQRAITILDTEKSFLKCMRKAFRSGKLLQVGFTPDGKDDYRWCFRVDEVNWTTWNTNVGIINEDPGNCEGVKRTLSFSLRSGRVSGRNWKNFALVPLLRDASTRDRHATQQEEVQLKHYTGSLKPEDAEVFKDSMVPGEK
Description: The agonistic or antagonistic action of the substances to be investigated on the vanilloid receptor 1 (VR1/TRPV1) of the species rat can be determined using the following assay. According to this assay, the Ca^2+ influx through the receptor channel is quantified with the aid of a Ca^2+-sensitive dye (Type Fluo-4, Molecular Probes Europe BV, Leiden Netherlands) in a fluorescent imaging plate reader (FLIPR, Molecular Devices, Sunnyvale, USA).
The vertebral column is removed from decapitated rats and this is laid directly in a cold, i.e. ice bath-surrounded, HBSS buffer (Hank's buffered saline solution, Gibco Invitrogen GmbH, Karlsruhe, Germany) and 1% by volume of an AA solution (antibiotics/antimycotics solution, PAA, Pasching, Austria) is added. The vertebral column is cut in two longitudinally and the vertebral canal is removed together with fascias. Subsequently, the dorsal root ganglia (DRGs) are removed and in turn stored in cold HBSS buffer to which 1% by volume of an AA solution has been added. The DRGs completely freed from blood residues and spinal nerves are in each case transferred to 500 μL of cold collagenase Type 2 (PAA, Pasching, Austria) and incubated at 37° C. for 35 minutes. […] On completion of incubation, the enzyme solution is carefully pipetted off and 500 μL of complete medium are added to the DRGs in each case. The DRGs are in each case repeatedly suspended, drawn through No. 1, No. 12 and No. 16 needles by means of a syringe and transferred to 50 mL Falcon tubes and these are filled to 15 mL with complete medium. The contents of each Falcon tube are in each case filtered through a 70 μm Falcon filter insert and centrifuged at 1200 rpm and room temperature for 10 minutes. The resulting pellet is in each case taken up in 250 μL of complete medium and the cell count is determined.
The number of cells in the suspension is adjusted to 3×10^5 per mL and in each case 150 μL of this suspension are added to a well of the cell culture plates coated as described above.
The cells are then loaded with 2 μM Fluo-4 and 0.01% by volume of Pluronic F127 (Molecular Probes Europe BV, Leiden Netherlands) in HBSS buffer (Hank's buffered saline solution, Gibco Invitrogen GmbH, Karlsruhe, Germany) at 37° C. for 30 min, washed 3 times with HBSS buffer and, after a further incubation of 15 minutes at room temperature, employed in the FLIPR assay for Ca^2+ measurement. […] Quantification is carried out by measuring the highest fluorescence intensity (FC, fluorescence counts) over time.
Initially, the compounds to be tested (10 μM) are pipetted onto the cells and the Ca^2+ influx is compared with the control (capsaicin 10 μM). Information is gained therefrom in % activation relative to the Ca^2+ signal after addition of 10 μM of capsaicin (CP). After incubation for 5 minutes, 100 nM of capsaicin are applied and the influx of Ca^2+ is likewise determined.
Desensitizing agonists and antagonists lead to suppression of the Ca^2+ influx. The percentage inhibition is calculated in comparison with the maximum inhibition achieved with 10 μM of capsaicin.
Triplicate determinations (n=3) are carried out and these are repeated in at least 3 independent experiments (N=4).

vanilloid receptor (VR1) [4] = biological target: T1, vanilloid receptor (VR1); assay: Functional FLIPR Ca2+ influx assay in CHO-K1 cells transfected with the VR1 gene, capsaicin stimulus (Pharmacological Method II); conditions: read-out: inhibition (in percent), Human Capsaicin
[5] = read-out: inhibition (in percent), Human following pH-stimulus
[6] = capsaicin, read-out: inhibition (in percent), Rat Capsaicin

Row | SMILES | Ki (vanilloid receptor (VR1) [1]) | IC50 [2] | Ki [3] | other results
1 | CC1CCN(c2nc(C(F)(F)F)ccc2CNC(=O)C(c2ccc(NS(C)(=O)=O)c(F)c2)C2CCCCC2)CC1 (centres unmarked) [Example 1, 2-Cyclohexyl-2-(3-fluoro-4-(methylsulfonamido)phenyl)-N-((2-(4-methylpiperidin-1-yl)-6-(trifluoromethyl)pyridin-3-yl)methyl)acetamide] | 31.1 nM | 118 nM | – | –
2 | CS(=O)(=O)Nc1ccc(C(C(=O)NCc2ccc(C(F)(F)F)nc2SC2CCCCC2)C2CCCCC2)cc1F (centres unmarked) [Example 2, 2-Cyclohexyl-N-((2-(cyclohexylthio)-6-(trifluoromethyl)pyridin-3-yl)methyl)-2-(3-fluoro-4-(methylsulfonamido)phenyl)acetamide] | – | 1390 nM | 98.7 nM | inhibition at 1 µM (vanilloid receptor (VR1) [4]): 2%; inhibition at 5 µM (vanilloid receptor (VR1) [4]): 31%
3 | CC1CCN(c2nc(C(F)(F)F)ccc2CNC(=O)C(c2ccccc2)c2ccc(NS(C)(=O)=O)c(F)c2)CC1 (centres unmarked) [Example 3, 2-(3-Fluoro-4-(methylsulfonamido)phenyl)-N-((2-(4-methylpiperidin-1-yl)-6-(trifluoromethyl)pyridin-3-yl)methyl)-2-phenylacetamide] | 1.3 nM | 79 nM | – | –
4 | CS(=O)(=O)Nc1ccc(C(C(=O)NCc2ccc(C(F)(F)F)nc2SC2CCCCC2)c2ccccc2)cc1F (centres unmarked) [Example 4, N-((2-(Cyclohexylthio)-6-(trifluoromethyl)pyridin-3-yl)methyl)-2-(3-fluoro-4-(methylsulfonamido)phenyl)-2-phenylacetamide] | 62.5 nM | 1590 nM | – | –
5 | CC1CCN(c2nc(C(F)(F)F)ccc2CNC(=O)C(C)(C)c2ccc(NS(C)(=O)=O)c(F)c2)CC1 [Example 5, 2-(3-Fluoro-4-(methylsulfonamido)phenyl)-2-methyl-N-((2-(4-methylpiperidin-1-yl)-6-(trifluoromethyl)pyridin-3-yl)methyl)propanamide] | 49 nM | 886 nM | 45.5 nM | –
6 | CC(C)(C(=O)NCc1ccc(C(F)(F)F)nc1SC1CCCCC1)c1ccc(NS(C)(=O)=O)c(F)c1 [Example 6, N-((2-(Cyclohexylthio)-6-(trifluoromethyl)pyridin-3-yl)methyl)-2-(3-fluoro-4-(methylsulfonamido)phenyl)-2-methylpropanamide] | 65.7 nM | – | 34.9 nM | inhibition at 0.1 µM ([2]; @ 0.1 μM, read-out: inhibition (in percent), Human following pH-stimulus): 4%; inhibition at 1 µM [2, 5]: 20%; inhibition at 5 µM [2, 5]: 42%; inhibition at 10 µM [2, 5]: 54%
7 | CCC(C)(C(=O)NCc1ccc(C(F)(F)F)nc1N1CCC(C)CC1)c1ccc(NS(C)(=O)=O)c(F)c1 (centres unmarked) [Example 7, 2-(3-Fluoro-4-(methylsulfonamido)phenyl)-2-methyl-N-((2-(4-methylpiperidin-1-yl)-6-(trifluoromethyl)pyridin-3-yl)methyl)butanamide] | 124 nM | – | 37.8 nM | inhibition at 1 µM [2, 5]: 0%; inhibition at 5 µM [2, 5]: 15%; inhibition at 10 µM [2, 5]: 18%
8 | CCC(C)(C(=O)NCc1ccc(C(F)(F)F)nc1SC1CCCCC1)c1ccc(NS(C)(=O)=O)c(F)c1 (centres unmarked) [Example 8, N-((2-(Cyclohexylthio)-6-(trifluoromethyl)pyridin-3-yl)methyl)-2-(3-fluoro-4-(methylsulfonamido)phenyl)-2-methylbutanamide] | – | – | – | inhibition at 1 µM [3, 6]: 26%; inhibition at 5 µM [3, 6]: 99%; inhibition at 5 µM [2, 5]: 0%; inhibition at 10 µM [2, 5]: 20%; inhibition at 1 µM (vanilloid receptor (VR1) [4]): 0%; inhibition at 5 µM (vanilloid receptor (VR1) [4]): 80%
9 | CC1CCN(c2nc(C(F)(F)F)ccc2CNC(=O)C2(c3ccc(NS(C)(=O)=O)c(F)c3)CCCC2)CC1 [Example 13, 1-(3-Fluoro-4-(methylsulfonamido)phenyl)-N-((2-(4-methylpiperidin-1-yl)-6-(trifluoromethyl)pyridin-3-yl)methyl)cyclopentanecarboxamide] | – | – | – | inhibition at 0.1 µM ([3]; @ 0.1 μM, capsaicin, read-out: inhibition (in percent), Rat Capsaicin): 0%; inhibition at 1 µM [3, 6]: 27%; inhibition at 5 µM [3, 6]: 43%; inhibition at 1 µM (vanilloid receptor (VR1) [4]): 0%; inhibition at 5 µM (vanilloid receptor (VR1) [4]): 25%
10 | CS(=O)(=O)Nc1ccc(C2(C(=O)NCc3ccc(C(F)(F)F)nc3SC3CCCCC3)CCCCC2)cc1F [Example 16, N-((2-(Cyclohexylthio)-6-(trifluoromethyl)pyridin-3-yl)methyl)-1-(3-fluoro-4-(methylsulfonamido)phenyl)cyclohexanecarboxamide] | – | – | – | inhibition at 1 µM [3, 6]: 15%; inhibition at 5 µM [3, 6]: 69%
11 | CC1CCN(c2nc(C(F)(F)F)ccc2CNC(=O)C(c2ccc(NS(C)(=O)=O)c(F)c2)C2CCCC2)CC1 (centres unmarked) [Example 21, 2-Cyclopentyl-2-(3-fluoro-4-(methylsulfonamido)phenyl)-N-((2-(4-methylpiperidin-1-yl)-6-(trifluoromethyl)pyridin-3-yl)methyl)acetamide] | 88.7 nM | 949 nM | 20.6 nM | –
12 | CS(=O)(=O)Nc1ccc(C(C(=O)NCc2ccc(C(F)(F)F)nc2SC2CCCCC2)C2CCCC2)cc1F (centres unmarked) [Example 22, N-((2-(Cyclohexylthio)-6-(trifluoromethyl)pyridin-3-yl)methyl)-2-cyclopentyl-2-(3-fluoro-4-(methylsulfonamido)phenyl)acetamide] | 103 nM | – | 31.3 nM | inhibition at 1 µM [2, 5]: 0%; inhibition at 5 µM [2, 5]: 27%; inhibition at 10 µM [2, 5]: 46%
13 | CC1CCN(c2nc(C(F)(F)F)ccc2CNC(=O)C(c2cccc(F)c2)c2ccc(NS(C)(=O)=O)c(F)c2)CC1 (centres unmarked) [Example 34, 2-(3-Fluoro-4-(methylsulfonamido)phenyl)-2-(3-fluorophenyl)-N-((2-(4-methylpiperidin-1-yl)-6-(trifluoromethyl)pyridin-3-yl)methyl)acetamide] | 2.4 nM | 21.6 nM | – | –
14 | CC1CCN(c2nc(C(F)(F)F)ccc2CNC(=O)C(c2ccc(F)cc2)c2ccc(NS(C)(=O)=O)c(F)c2)CC1 (centres unmarked) [Example 35, 2-(3-Fluoro-4-(methylsulfonamido)phenyl)-2-(4-fluorophenyl)-N-((2-(4-methylpiperidin-1-yl)-6-(trifluoromethyl)pyridin-3-yl)methyl)acetamide] | 3.4 nM | 246 nM | 13.6 nM | –
15 | Cc1ccccc1C(C(=O)NCc1ccc(C(F)(F)F)nc1N1CCC(C)CC1)c1ccc(NS(C)(=O)=O)c(F)c1 (centres unmarked) [Example 40, 2-(3-Fluoro-4-(methylsulfonamido)phenyl)-N-((2-(4-methylpiperidin-1-yl)-6-(trifluoromethyl)pyridin-3-yl)methyl)-2-o-tolylacetamide] | 42.9 nM | 3140 nM | 109 nM | –
16 | Cc1cccc(C(C(=O)NCc2ccc(C(F)(F)F)nc2N2CCC(C)CC2)c2ccc(NS(C)(=O)=O)c(F)c2)c1 (centres unmarked) [Example 41, 2-(3-Fluoro-4-(methylsulfonamido)phenyl)-N-((2-(4-methylpiperidin-1-yl)-6-(trifluoromethyl)pyridin-3-yl)methyl)-2-m-tolylacetamide] | 0.1 nM | 86.7 nM | 1.8 nM | –
17 | Cc1ccc(C(C(=O)NCc2ccc(C(F)(F)F)nc2N2CCC(C)CC2)c2ccc(NS(C)(=O)=O)c(F)c2)cc1 (centres unmarked) [Example 42, 2-(3-Fluoro-4-(methylsulfonamido)phenyl)-N-((2-(4-methylpiperidin-1-yl)-6-(trifluoromethyl)pyridin-3-yl)methyl)-2-p-tolylacetamide] | 1.1 nM | 31.6 nM | 6.3 nM | –
18 | Cc1ccc(CC(C(=O)NCc2ccc(C(F)(F)F)nc2N2CCC(C)CC2)c2ccc(NS(C)(=O)=O)c(F)c2)cc1 (centres unmarked) [Example 77, 2-(3-Fluoro-4-(methylsulfonamido)phenyl)-N-((2-(4-methylpiperidin-1-yl)-6-(trifluoromethyl)pyridin-3-yl)methyl)-3-p-tolylpropanamide] | – | – | 158 nM | inhibition at 1 µM (vanilloid receptor (VR1) [4]): 0%; inhibition at 5 µM (vanilloid receptor (VR1) [4]): 17%
